The results in this text go back to US9499534B2, “Thiazole-substituted aminopyrimidines as spleen tyrosine kinase inhibitors” (priority 2013, dated 2016).

This assay deals with recombinant human GST-SYK (Homo sapiens (Human), UniProt P43405). Nature of the assay: Homogeneous Time-Resolved Fluorescence (HTRF) Assay for the Recombinant Human Syk Enzyme. It is filed as biochemical. The conditions noted are these: GST-SYK 5 pM, ATP 25 μM, biotinylated substrate peptide 250 nM, HTRF signal. On the procedure:
Homogeneous Time-Resolved Fluorescence (HTRF) Assay for the Recombinant Human Syk Enzyme
A recombinant GST-hSYK fusion protein was used to measure potency of compounds to inhibit human Syk activity. The recombinant human GST-SYK (Carna Biosciences #08-176) (5 pM final concentration) was incubated with various concentrations of the inhibitor diluted in DMSO (0.1% final concentration) for 10 minutes at room temperature in 15 mM Tris-HCl (pH 7.5), 0.01% tween 20, 2 mM DTT in 384 well plate format. To initiate the reaction the biotinylated substrate peptide (250 nM final concentration) that contains the phosphorylation site for Syk was added with magnesium (5 mM final concentration) and ATP (25 μM final concentration). Final volume of the reaction was 10 μL. Phosphorylation of the peptide was allowed to proceed for 45′ at room temperature. To quench the reaction and detect the phosphorylated product, 2 nM of a Europium-anti-phosphotyrosine antibody (Perkin Elmer #AD0161) and 70 nM SA-APC (Perkin-Elmer #CR130-100) were added together in 15 mM Tris pH 7.5, 40 mM EDTA, 0.01% tween 20. Final volume of the quenching solution was 10 μL.
The resulting HTRF signal was measured after 30 minutes on an EnVision (Perkin-Elmer) reader using a time-resolved fluorescence protocol. Table A below lists activities as IC50 values (nM) for representative compounds of the invention.
In general terms: TR-FRET usually uses a lanthanide donor and a delayed reading to cut background.

Each structure is given as a SMILES string.

In the case of `CCOC(=O)[C@H]1CC[C@](O)(c2ncc(-c3cc(Nc4nccc(C(F)(F)F)n4)cc(-c4cn[nH]c4)c3)s2)C[C@H]1C` (racemic) [Example 1.1, Ethyl rel-(1S,2R,4R or S)-4-(5-(3-(1H-pyrazol-4-yl)-5-((4-(trifluoromethyl)pyrimidin-2-yl)amino)phenyl)thiazol-2-yl)-4-hydroxy-2-methylcyclohexanecarboxylate], the IC50 – broadly, the concentration needed to halve the response being measured – was determined as 162 nM.

Regarding `C[C@@H]1C[C@@](O)(c2ncc(-c3cc(Nc4nccc(C(F)(F)F)n4)cc(-c4cn[nH]c4)c3)s2)CC[C@@H]1C(=O)O` (racemic) [Example 1.2, rel-(1S,2R,4R or S)-4-(5-(3-(1H-pyrazol-4-yl)-5-((4-(trifluoromethyl)pyrimidin-2-yl)amino)phenyl)thiazol-2-yl)-4-hydroxy-2-methylcyclohexanecarboxylic acid], the 50% inhibitory concentration (IC50) turned out to be 0.959 nM.

As for `C[C@@H]1C[C@@](O)(c2ncc(-c3cc(Nc4nccc(C(F)(F)F)n4)cc(-c4cn[nH]c4)c3)s2)CC[C@@H]1C(N)=O` (racemic) [Example 1.3, rel-(1S,2R,4R or S)-4-(5-(3-(1H-pyrazol-4-yl)-5-((4-(trifluoromethyl)pyrimidin-2-yl)amino)phenyl)thiazol-2-yl)-4-hydroxy-2-methylcyclohexanecarboxamide], the 50% inhibitory concentration (IC50) was 2.95 nM.

On to `COc1cc(Nc2nccc(C(F)(F)F)n2)cc(-c2cnc([C@@]3(O)CC[C@H](C(=O)O)C(C)(C)C3)s2)c1` (single isomer, unassigned) [Example 1.5, (1R,4S or 1S,4R) 4-Hydroxy-4-(5-(3-methoxy-5-((4-(trifluoromethyl)pyrimidin-2-yl)amino)phenyl)thiazol-2-yl)-2,2-dimethylcyclohexanecarboxylic acid], for which the IC50 was 1.4 nM.

`CC1(C)CC(O)(c2ncc(-c3cc(C#N)cc(Nc4nccc(C(F)(F)F)n4)c3)s2)CCC1C(=O)O` (single isomer, unassigned) [Example 1.8, (1R,4S or 1S,4R)-4-[5-(3-cyano-5-{[4-(trifluoromethyl)pyrimidin-2-yl]amino}phenyl)-1,3-thiazol-2-yl]-4-hydroxy-2,2-dimethylcyclohexanecarboxylic acid]: the IC50 is 5.77 nM.

Take `CC1(C)CC(O)(c2ncc(-c3cc(Nc4nccc(C(F)(F)F)n4)cc(S(C)(=O)=O)c3)s2)CCC1C(=O)O` (single isomer, unassigned) [Example 1.9, (1R,4S or 1S,4R)-4-hydroxy-2,2-dimethyl-4-{5-[3-(methylsulfonyl)-5-{[4-(trifluoromethyl)pyrimidin-2-yl]amino}phenyl]-1,3-thiazol-2-yl}cyclohexanecarboxylic acid]: the IC50 amounted to 5.1 nM.

As to `Cn1cc(-c2cc(Nc3nccc(C(F)(F)F)n3)cc(-c3cnc([C@@]4(O)CC[C@H](C(=O)O)C(C)(C)C4)s3)c2)cn1` (single isomer, unassigned) [Example 2.1, (1R,4S or 1S,4R)-4-Hydroxy-2,2-dimethyl-4-(5-(3-(1-methyl-1H-pyrazol-4-yl)-5-((4-(trifluoromethyl)pyrimidin-2-yl)amino)phenyl)thiazol-2-yl)cyclohexanecarboxylic acid], the concentration for half-maximal inhibition (IC50) is 48 nM.

Consider `CC1(C)C[C@](O)(c2ncc(-c3cc(Nc4nccc(C(F)(F)F)n4)cc(-c4cnn(C(C)(C)C)c4)c3)s2)CC[C@H]1C(=O)O` (single isomer, unassigned) [Example 2.2, (1R,4S or 1S,4R)-4-{5-[3-(1-tert-butyl-1H-pyrazol-4-yl)-5-{[4-(trifluoromethyl)pyrimidin-2-yl]amino}phenyl]-1,3-thiazol-2-yl}-4-hydroxy-2,2-dimethylcyclohexanecarboxylic acid], for which the half-inhibitory concentration (IC50) was 285 nM.

For `CC(C)n1cc(-c2cc(Nc3nccc(C(F)(F)F)n3)cc(-c3cnc([C@]4(O)CC[C@@H](C(=O)O)C(C)(C)C4)s3)c2)cn1` (single isomer, unassigned) [Example 2.3, (1R,4S or 1S,4R)-4-hydroxy-2,2-dimethyl-4-[5-(3-[1-(1-methylethyl)-1H-pyrazol-4-yl]-5-{[4-(trifluoromethyl)pyrimidin-2-yl]amino}phenyl)-1,3-thiazol-2-yl]cyclohexanecarboxylic acid], the IC50 amounted to 149 nM.

Turning to `CCn1cc(-c2cc(Nc3nccc(C(F)(F)F)n3)cc(-c3cnc([C@]4(O)CC[C@@H](C(=O)O)C(C)(C)C4)s3)c2)cn1` (single isomer, unassigned) [Example 2.4, (1R,4S or 1S,4R)-4-{5-3-(1-ethyl-1H-pyrazol-4-yl)-5-{[4-(trifluoromethyl)pyrimidin-2-yl]amino}phenyl]-1,3-thiazol-2-yl}-4-hydroxy-2,2-dimethylcyclohexanecarboxylic acid], the IC50 turned out to be 63.5 nM.

As for `CC1(C)C[C@](O)(c2ncc(-c3cc(Nc4nccc(C(F)(F)F)n4)cc(-c4ccncc4)c3)s2)CC[C@H]1C(=O)O` (single isomer, unassigned) [Example 2.5, (1R,4S or 1S,4R)-4-hydroxy-2,2-dimethyl-4-[5-(3-pyridin-4-yl-5-{[4-(trifluoromethyl)pyrimidin-2-yl]amino}phenyl)-1,3-thiazol-2-yl]cyclohexanecarboxylic acid], the IC50 was 1.56 nM.

`CC1(C)C[C@](O)(c2ncc(-c3cc(Nc4nccc(C(F)(F)F)n4)cc(-c4ccc(F)cc4)c3)s2)CC[C@H]1C(=O)O` (single isomer, unassigned) [Example 2.6, (1R,4S or 1S,4R)-4-[5-(4′-fluoro-5-{[4-(trifluoromethyl)pyrimidin-2-yl]amino}biphenyl-3-yl)-1,3-thiazol-2-yl]-4-hydroxy-2,2-dimethylcyclohexanecarboxylic acid]: the IC50 worked out at 20.7 nM.

`COc1ccc(-c2cc(Nc3nccc(C(F)(F)F)n3)cc(-c3cnc([C@]4(O)CC[C@@H](C(=O)O)C(C)(C)C4)s3)c2)cn1` (single isomer, unassigned) [Example 2.7, (1R,4S or 1S,4R)-4-hydroxy-4-{5-[3-(6-methoxypyridin-3-yl)-5-{[4-(trifluoromethyl)pyrimidin-2-yl]amino}phenyl]-1,3-thiazol-2-yl}-2,2-dimethylcyclohexanecarboxylic acid]: the IC50 came out at 3.68 nM.

On to `CC1(C)C[C@](O)(c2ncc(-c3cc(Nc4nccc(C(F)(F)F)n4)cc(-c4ccsc4)c3)s2)CC[C@H]1C(=O)O` (single isomer, unassigned) [Example 2.8, (1R,4S or 1S,4R)-4-hydroxy-2,2-dimethyl-4-[5-(3-thiophen-3-yl-5-{[4-(trifluoromethyl)pyrimidin-2-yl]amino}phenyl)-1,3-thiazol-2-yl]cyclohexanecarboxylic acid], for which the half-maximal inhibitory concentration (IC50) is 11.7 nM.

As to `CC1(C)C[C@](O)(c2ncc(-c3cc(Nc4nccc(C(F)(F)F)n4)cc(-c4cccc(C(=O)NC5CC5)c4)c3)s2)CC[C@H]1C(=O)O` (single isomer, unassigned) [Example 2.9, (1R,4S or 1S,4R)-4-{5-[3′-(cyclopropylcarbamoyl)-5-{[4-(trifluoromethyl)pyrimidin-2-yl]amino}biphenyl-3-yl]-1,3-thiazol-2-yl}-4-hydroxy-2,2-dimethylcyclohexanecarboxylic acid], the IC50 was 2.78 nM.

Take `CC1(C)C[C@](O)(c2ncc(-c3cc(Nc4nccc(C(F)(F)F)n4)cc(-c4cn[nH]c4)c3)s2)CC[C@H]1C(=O)O` (single isomer, unassigned) [Example 2.10, (1R,4S or 1S,4R)-4-hydroxy-2,2-dimethyl-4-{5-[3-(1H-pyrazol-4-yl)-5-{[4-(trifluoromethyl)pyrimidin-2-yl]amino}phenyl]-1,3-thiazol-2-yl}cyclohexanecarboxylic acid]: the half-maximal inhibitory concentration (IC50) came out at 2.38 nM.

As for `CC1(C)C[C@](O)(c2ncc(-c3cc(Nc4nccc(C(F)(F)F)n4)cc(-c4cc[nH]n4)c3)s2)CC[C@H]1C(=O)O` (single isomer, unassigned) [Example 2.11, (1R,4S or 1S,4R)-4-hydroxy-2,2-dimethyl-4-{5-[3-(1H-pyrazol-3-yl)-5-{[4-(trifluoromethyl)pyrimidin-2-yl]amino}phenyl]-1,3-thiazol-2-yl}cyclohexanecarboxylic acid], the IC50 came out at 1.11 nM.

For the molecule `COc1ccc(-c2cc(Nc3nccc(C(F)(F)F)n3)cc(-c3cnc([C@]4(O)CC[C@@H](C(=O)O)C(C)(C)C4)s3)c2)cc1F` (single isomer, unassigned) [Example 2.12, (1R,4S or 1S,4R)-4-[5-(3′-fluoro-4′-methoxy-5-{[4-(trifluoromethyl)pyrimidin-2-yl]amino}biphenyl-3-yl)-1,3-thiazol-2-yl]-4-hydroxy-2,2-dimethylcyclohexanecarboxylic acid], the half-inhibitory concentration (IC50) stood at 35.3 nM.

As to `CC1(C)C[C@](O)(c2ncc(-c3cc(Nc4nccc(C(F)(F)F)n4)cc(-c4cccc(F)c4F)c3)s2)CC[C@H]1C(=O)O` (single isomer, unassigned) [Example 2.14, (1R,4S or 1S,4R)-4-[5-(2′,3′-difluoro-5-{[4-(trifluoromethyl)pyrimidin-2-yl]amino}biphenyl-3-yl)-1,3-thiazol-2-yl]-4-hydroxy-2,2-dimethylcyclohexanecarboxylic acid], the IC50 was found to be 12.9 nM.
